These results are taken from article PMC6030563, “Type 2 NADH Dehydrogenase Is the Only Point of Entry for Electrons into the Streptococcus agalactiae Respiratory Chain and Is a Potential Drug Target” (mBio, 2018).

Test [1] concerns the target T1, S. agalactiae NDH-2 (Streptococcus agalactiae, UniProt Q8E3H1). The experiment in a line: Inhibition of isolated NDH-2 NADH:quinone oxidoreductase activity (FDA-approved drug library screen and IC50). The note with it: for inhibition at 25 µM: read-out: inhibition of enzymatic activity.
The subject of test [2] is S. agalactiae cells. The experiment in a line: Inhibition of cell growth overnight under respiration permissive conditions (GI50). Format: cell-based, Streptococcus agalactiae. The note with it: for GI50: Streptococcus agalactiae, overnight growth, respiration permissive conditions, read-out: GI50 (concentration that causes 50% inhibition of cell growth); for effect on cell growth: whole cells growing under respiration permissive conditions.

Test [3] concerns the target T1, S. agalactiae NDH-2. The experiment in a line: NDH-2 enzyme activity and kinetic parameters with NADH and soluble quinone analogues. Format: biochemical. Here is the method: The rate of NADH oxidation was determined using a UV-Vis spectrophotometer (Agilent Technologies model 8453) by monitoring absorbance at 340 nm (NADH oxidation) upon addition of 100 µM NADH in the presence of 2 nM enzyme and a 100 µM concentration of a quinone soluble analogue. Assays were performed at 37°C in buffer B (50 mM sodium phosphate buffer [pH 7], 150 mM NaCl) plus 125 µg ml^−1 of soy asolectin (Sigma) and 20 µM FAD. For determination of kinetic constants, 2 to 200 µM NADH and 2 to 200 µM of DMN were added to the reaction mixture containing 2 nM enzyme. Enzyme rates are expressed as a turnover number (kcat) based on moles of NADH oxidized per second per mole of enzyme.

Test [4] deals with M. tuberculosis. More on the design: method as in PMID 23439641. The note with it: cited from earlier work.
Test [5] concerns Porphyromonas gingivalis. On the set-up: method as in PMID 28087617. The note with it: cited from earlier work.
In test [6] the test system is S. agalactiae WT cells. The note with it: Streptococcus agalactiae, read-out: inhibition of respiration (oxygen consumption).
Test [7] concerns Streptococcus mutans. On the set-up: method as in PMID 28087617. The note with it: cited from earlier work.
In test [8] the test system is S. agalactiae Δnox2 strain. The experiment in a line: Overnight growth and oxygen consumption of the Δnox2 strain with zafirlukast.
For test [9], the system named is S. aureus NdhC. On the set-up: method as in PMID 24709059. The note with it: cited from earlier work.

As usually defined, the IC50 is the concentration needed to halve the response being measured. A low value points to higher potency. Usually Km stands for the substrate concentration at which the rate is half of its maximum.

T1 sequence (Q8E3H1 2-402 limits assumed): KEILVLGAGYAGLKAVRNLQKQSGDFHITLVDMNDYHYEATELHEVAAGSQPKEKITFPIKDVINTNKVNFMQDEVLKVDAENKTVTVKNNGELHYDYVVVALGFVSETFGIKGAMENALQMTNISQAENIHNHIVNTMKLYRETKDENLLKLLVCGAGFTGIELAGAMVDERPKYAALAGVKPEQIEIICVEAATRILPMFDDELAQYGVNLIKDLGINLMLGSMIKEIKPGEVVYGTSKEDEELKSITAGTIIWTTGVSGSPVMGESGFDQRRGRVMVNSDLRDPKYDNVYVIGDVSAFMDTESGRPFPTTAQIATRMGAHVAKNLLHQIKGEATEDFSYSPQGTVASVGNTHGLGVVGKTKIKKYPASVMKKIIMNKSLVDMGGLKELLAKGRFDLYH

`CCCCC(CC)CNC(=N)NC(=N)NCCCCCCNC(=N)NC(=N)NCC(CC)CCCC` (stereo not shown) [Alexidine]: in [1], half-maximal inhibition (IC50) was put at 16.8 ± 1.26 µM and the inhibition at 25 µM is not below 80%. In addition, the GI50 in test [2] amounted to 2.7 ± 0.51 µM.

Consider `CC[C@H](C)C[C@H](C)CCCCCCCCC(=O)N[C@H]1C[C@@H](O)[C@@H](NCCN)NC(=O)[C@@H]2[C@@H](O)CCN2C(=O)[C@H]([C@H](O)CCN)NC(=O)[C@H]([C@H](O)[C@@H](O)c2ccc(O)cc2)NC(=O)[C@@H]2C[C@@H](O)CN2C(=O)[C@H]([C@@H](C)O)NC1=O` [Caspofungin], for which, in [1], the IC50 came to 15.2 ± 2.33 µM and the inhibition at 25 µM was not below 80%. In addition, the GI50 in test [2] amounted to 41 ± 2.62 µM.

For the compound `Cc1cc(C(C#N)c2ccc(Cl)cc2)c(Cl)cc1NC(=O)c1cc(I)cc(I)c1O` (stereo not shown) [Closantel], in test [1], 5.34 ± 0.65 µM corresponded to half-maximal inhibition (IC50) and the inhibition at 25 µM was not below 80%. For the same compound, the GI50 in test [2] worked out at 0.25 ± 0.04 µM.

In the case of `CC1=C(C)C(=O)c2ccccc2C1=O` [DMN, 2,3-dimethyl-1,4-naphthoquinone], the turnover number result in test [3] (with DMN as electron acceptor) is listed as “about 800 NADH/s^−1”.

Regarding `NC(=O)C1=CN([C@@H]2O[C@H](COP(=O)(O)OP(=O)(O)OC[C@H]3O[C@@H](n4cnc5c(N)ncnc54)[C@H](O)[C@@H]3O)[C@@H](O)[C@H]2O)C=CC1` [NADH], the Km in test [3] (2 nM enzyme, 2 to 200 µM NADH and DMN, 37°C, pH 7, read-out: Km for the enzyme's substrates) was 11 µM.

With `COC1=C(OC)C(=O)C(CC=C(C)C)=C(C)C1=O` [Q1, ubiquinone-1], the “enzyme activity corresponding to 100% (NADH oxidation)” value in [3] (100 µM quinone analogue, 100 µM NADH, Fig. 2C) is reported as 4,190 NADH s^−1.

Turning to `CSc1nc2cc(Cl)c(Oc3cccc(Cl)c3Cl)cc2[nH]1` [Triclabendazole], in test [1], the IC50 was determined as 0.14 ± 0.02 µM and the inhibition at 25 µM was not below 80%. Also, the GI50 in test [2] turned out to be 15.3 ± 1.92 µM.

With `COc1cc(C(=O)NS(=O)(=O)c2ccccc2C)ccc1Cc1cn(C)c2ccc(NC(=O)OC3CCCC3)cc12` [Zafirlukast], in test [4], the “activity against M. tuberculosis” value is “bactericidal activity”. In addition, in [5], the “activity against Porphyromonas gingivalis” value was “antibacterial and antibiofilm activity”. Besides, in test [1], the concentration for half-maximal inhibition (IC50) amounted to 0.83 ± 0.07 µM and the inhibition at 25 µM is not below 80%. The inhibition at 7.5 µM in test [6] stood at 90%. Also, the GI50 in test [2] was 6.07 ± 0.1 µM. Further, in test [7], the “activity against Streptococcus mutans” value was “antibacterial and antibiofilm activity”. Further, in test [8] (Δnox2 strain grown overnight with 7.5 µM zafirlukast (~GI50)), the “growth under respiration permissive compared to nonpermissive conditions” value is recorded as “does not exhibit enhanced growth”. In addition, the “oxygen utilization compared to cells grown in the absence of zafirlukast” value in test [8] (Δnox2 strain grown overnight with 7.5 µM zafirlukast, respiration permissive) is “substantially lower”.

On to `CCOc1nc2cccc(C(=O)O)c2n1Cc1ccc(-c2ccccc2-c2nnn[nH]2)cc1` [candesartan], for which the inhibition at 25 µM in [1] was not below 80%. The “effect on cell growth” value in test [2] is reported as “no effect on cell growth”.

On to `Oc1c(Cl)cc(Cl)c(Cl)c1Cc1c(O)c(Cl)cc(Cl)c1Cl` [hexachlorophene], for which the “inhibition of enzymatic activity” value in [1] (25 µM each compound, pure enzyme, NADH and menadione) was “at least 80%”.

Take `O=c1c(O[C@@H]2O[C@H](CO)[C@@H](O)[C@H](O)[C@H]2O)c(-c2ccc(O)c(O)c2)oc2cc(O)cc(O)c12` [isoquercetin]: the inhibition at 25 µM in test [1] is not below 80%. Also, in test [2], the “effect on cell growth” value is “no effect on cell growth”.

Regarding `CCCCOc1ccc(OCCCN2CCOCC2)cc1` [pramoxine], the inhibition at 25 µM in [1] is not below 80%. The “effect on cell growth” value in test [2] is “no effect on cell growth”.

As for `CSc1ccc2c(c1)N(CCC1CCCCN1C)c1ccccc1S2` (stereo not shown) [thioridazine], the “inhibitory effect on S. aureus NdhC” value in test [9] is listed as “strong inhibitory effect”.

As to `CN1CCN(CCCN2c3ccccc3Sc3ccc(C(F)(F)F)cc32)CC1` [trifluoperazine], the “inhibitory effect on S. aureus NdhC” value in [9] is listed as “strong inhibitory effect”. In [1], the “inhibition of S. agalactiae NDH-2” value is on record as “not inhibited”.
